3 molecules from PubChem BioAssay (NCI) can be followed below.

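The compound was tested at five concentrations on cells cultured in 96-well plates, with a 48-hour exposure period. Definition used: TGI = concentration required for complete inhibition of growth.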

What all share (assay): NCI tumour cell line growth inhibition, 48 h
Assay [1] deals with P388/ADR leukemia.
Assay [2] deals with SN12K1 renal.
In assay [3] the test system is RXF-631 renal.

As for `CC1OC1C(=O)C1(O)C(C)C(O)C23OC2(C(O)c2c(O)cccc2C3=O)C1O` (stereo not given), the results for the TGI in assay [1] and in assay [2] were 425 nM and 889 nM, respectively.
`CN1CCN(c2cc(-c3cc4ccccc4o3)oc(=O)c2C#N)CC1`: in assay [3], the TGI is above 100000 nM.
Take `O=C(NN1C(=O)CSC1c1ccc(C(F)(F)F)cc1)c1ccncc1` (stereo not given): the TGI in assay [1] and in assay [2] was above 100000 nM each time.
